Columns and labels:
[1] = Energy/Fatigue Scale, randomized placebo-controlled pilot clinical study (Study 1); format: in vivo, human; details: for Mental Energy / Perceived Fatigue: possible scores 5-30; for General Energy / Motivation: possible scores 6-36; for Physical Energy: possible scores 7-42; for Emotional Energy: possible scores 8-48
Procedure: The present randomized, double-blinded, placebo-controlled, pilot clinical study was initiated with the primary aim of investigating the safety, tolerability, and the blood NAD+-boosting efficacy of an acute, single dose of NR IV (500 mg, test), NAD+ IV (500 mg, active comparator), oral NR (500 mg, bridge), and saline IV (placebo control) in generally healthy adult participants. The study consisted of two parts; data from 37 and 16 participants in the first and second phases, respectively, were analyzed.
This was a 2-part study. The first study was a 4-arm randomized, placebo-controlled parallel trial. The 3 IV arms were double-blinded, while the 4th arm involved oral administration making it naturally unblinded. Participants were randomized at a 10:10:10:6 ratio to intravenous placebo (saline), NAD^+, NR, or oral NR (oral). The second study was a randomized parallel design trial with two arms for the purpose of evaluating the actual differences in infusion rates in real time. Participants were randomized at a 1:1 ratio to intravenous NR or NAD^+.
(§1) Vials of 50 mg/ml of NR or NAD+ were prepared in 10 ml of sterile water by DCA Pharmacy (Franklin, Tennessee) by prescription, for research administration only, and maintained in refrigerated conditions until use. For participants who were randomized to the test group or to the active comparator group, the NR or NAD+ was added to 500 ml of normal saline (B Braun 0.9% sodium chloride injection USP, preservative free) prior to intravenous administration. Those randomly assigned to the saline group received 500 ml of normal saline. Participants that were randomly assigned to the oral arm were provided with 500 mg of NR which was taken with water.
To assess vital signs and subdomains on the sleep and energy scales, between-groups comparisons were assessed using analysis of covariance (ANCOVA) with baseline scores as the covariate and a Bonferroni correction. Levene's test was used to check and confirm the assumption of homogeneity of variances.
Tables A-D below reflect mean scores for each group at days 7 and 14. An ANCOVA was used to identify statistical significant differences, using baseline scores as the covariate which helps to account for the natural variation in psychological measurements, increasing the power of the study.
It is noted that the energy scale measures disruptions to energy levels; lower scores reflect greater levels of energy.

[2] = Tolerable infusion rate / infusion duration, Study 1; format: in vivo, human; details: 500 mg in 500 ml saline, start 20 drops per minute for 15 minutes, then rate by participant comfort, mean ± SD
Procedure: as §1
In the first study, participants began the infusion at a rate of 20 drops per minute for the first 15 minutes to ensure safety and comfort. […] Participants were closely monitored for the duration of the infusion, and the infusion rate was decreased, as applicable, upon participant request.
Additional analyses were conducted using GraphPad Prism (Ver. 10.0.2). Statistical significance was determined as p<0.05, with comparisons of the test articles compared to saline or between group comparisons. […] Time in chair was analyzed for study 1 by a one-way ANOVA with multiple comparisons, study 2 was analyzed by unpaired t-test. The baseline variable of age was analyzed for differences by one way ANOVA with multiple comparisons for study.

[3] = Energy/Fatigue Scale Day 7, mean score, lower = greater energy
[4] = Energy/Fatigue Scale Day 14, mean score, lower = greater energy

NC(=O)c1ccc[n+]([C@@H]2O[C@H](COP(=O)([O-])OP(=O)(O)OC[C@H]3O[C@@H](n4cnc5c(N)ncnc54)[C@H](O)[C@@H]3O)[C@@H](O)[C@H]2O)c1 [NAD+ IV, Nicotinamide Adenine Dinucleotide]
Mental Energy [1, 3]: 13.13
Perceived Fatigue [1, 3]: 15.75
General Energy [1, 3]: 20.63
Motivation [1, 3]: 11.13
Physical Energy ([1]; Energy/Fatigue Scale Day 7, mean score, lower scores = greater energy, single 500 mg dose): 19.63
Emotional Energy [1, 3]: 31.75
Mental Energy [1, 4]: 14.50
Perceived Fatigue [1, 4]: 15.50
General Energy [1, 4]: 20.13
Motivation [1, 4]: 13.50
Physical Energy [1, 4]: 18.50
Emotional Energy [1, 4]: 29.63
infusion intake, average [2]: 182.9 ± 55.93 min

Source: patent US12558367B2, “Nicotinamide riboside and derivatives thereof in intravenous formulations and methods of use thereof” (ChromaDex Inc., priority 2023, dated 2026)
